# Assay results: patent US8624034B2, “Fluoro-pyridinone derivatives useful as antibacterial agents” (Pfizer Inc., priority 2011, dated 2014)
# Columns and labels:
# [1] = target: T1, Pseudomonas aeruginosa LpxC enzyme (Pseudomonas aeruginosa, UniProt P47205); experiment: IC50 assay, LpxC enzyme from P. aeruginosa (PA LpxC enzyme IC50); assay type: biochemical; details: Table 3; LpxC enzyme 0.1 nM, 25° C., 1 hour; read-out: PA:IC50
# T1 construct: made in house; host or cells: E. coli
# T1 sequence (P47205 1-303): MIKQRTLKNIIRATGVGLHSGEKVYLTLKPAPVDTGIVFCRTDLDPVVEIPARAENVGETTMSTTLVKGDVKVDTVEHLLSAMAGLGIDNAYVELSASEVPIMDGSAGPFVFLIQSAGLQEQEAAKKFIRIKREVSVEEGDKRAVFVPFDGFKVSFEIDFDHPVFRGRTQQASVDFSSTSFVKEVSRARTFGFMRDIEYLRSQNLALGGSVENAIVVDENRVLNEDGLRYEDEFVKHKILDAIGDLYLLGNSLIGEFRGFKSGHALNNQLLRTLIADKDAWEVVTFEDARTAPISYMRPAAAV
# Description: In order to assess the compounds biological activity, selected in vitro assays were conducted on selected compounds. One of the assays measured the compounds ability to disrupt the synthesis of lipopolysaccharide, LPS, which is a component of the outer membrane of Gram-negative bacteria. Disruption of this synthesis is lethal to the bacteria. The assay determined the compound's ability to inhibit LpxC, which is the first enzyme in the biosynthetic pathway for LPS (measured as IC50). Additionally, MICs (minimal inhibitory concentrations) were determined for several bacteria. The specific protocols are described below:
# A) IC50 Assay, LpxC Enzyme from P. aeruginosa (Labeled as PA LpxC Enzyme IC50):
# At the end of 1 hour, 5 ul of 1 N HCl was added to stop the enzyme reaction, the plates were centrifuged, and then processed with the BioTrove Rapidfire HTMS Mass Spectrometry System. A no-enzyme control was used in calculating the IC50 values from the percent conversion values.
# [2] = tested on: Acinetobacter baumannii/haemolyticus, multidrug-resistant clinical isolate (AB-3167); experiment: MIC determination, AB-3167; assay type: cell-based; details: Table 3, lower of duplicate values
# Description: (§1) The in vitro antibacterial activity of compounds described in the Examples was evaluated by minimum inhibitory concentration (MIC) testing according to Clinical and Laboratory Standards Institute (CLSI). See: Clinical and Laboratory Standards Institute. Methods for Dilution Antimicrobial Susceptibility Tests for Bacteria that Grow Aerobically; Approved Standard-Eighth Edition. CLSI document M7-A8 [ISBN 1-56238-689-1]. Clinical and Laboratory Standards Institute, 940 West Valley Road, Suite 1400, Wayne, Pa. 19087-1898 USA, 2006; also Clinical and Laboratory Standards Institute. Performance Standards for Antimicrobial Susceptibility Testing; Twentieth Informational Supplement. CLSI document M100-S20 [ISBN 1-56238-716-2]. Clinical and Laboratory Standards Institute.
# (§2) The MIC determination is a standard laboratory method for evaluating the antibacterial activity of a compound. The MIC represents the lowest drug concentration that inhibits visible growth of bacteria following overnight incubation. […] Typically, the drug concentration range is broken down into 2-fold increments (e.g. 0.06 μg/mL, 0.12 μg/mL. 0.25 μg/mL, 0.50 μg/mL, 1.0 μg/mL, etc.) and the various drug concentrations are all individually incubated overnight with approximately the same number of bacteria. The MIC is then determined by visually inspecting the drug effect at each concentration, and identifying the lowest drug concentration that has inhibited bacterial growth as compared to the drug free control. Typically, bacteria continue to grow at drug concentrations lower than the MIC and don't grow at concentrations at and above the MIC.
# (§3) The MIC values described in Table 2 and 3 below were derived from assays wherein each test compound was evaluated in duplicate. In cases where the duplicate values varied by 0-2-fold, the lower of the two values was reported below. Generally speaking, if the duplicate values varied by more than 2-fold, the assay was considered non-valid and was repeated until the variation between duplicate runs was ≦2-fold. In line with the CLSI guidelines referred to above, both control organisms and reference compounds were utilized in each MIC assay to provide proper quality control. MIC values generated with these control organisms and reference compounds were required to fall within a defined range for the assay to be considered valid and be included herein. Those skilled in the art will recognize that MIC values can and do vary from experiment to experiment. Generally speaking, it should be recognized that MIC values often vary +/−2-fold from experiment to experiment. While a single MIC is reported for each compound and each microorganism, the reader should not conclude that each compound was only tested once. Several of the compounds were subjected to multiple tests. The data reported in Tables 2 and 3 is reflective of the compounds relative activity and different MICs may have been generated on these occasions in line with the guidelines described above.
# (§4) The following bacterial strains were used in these MIC determinations:
# 2) Acinetobacter baumannii/haemolyticus: Multidrug-resistant clinical isolate labeled as AB-3167 in Tables 2 and 3;
# [3] = tested on: Escherichia coli EC-1: VOGEL, mouse virulent; experiment: MIC determination, EC-1; assay type: cell-based; details: Escherichia coli, read-out: EC-1 (MIC), Table 3, lower of duplicate values
# Description: as §1, §2, §3, §4
# 3) Escherichia coli EC-1: VOGEL, mouse virulent labeled as EC-1 in Tables 2 and 3;
# PA:UC12120 = experiment: MIC determination, PA:UC12120 (Table 3); assay type: cell-based, Pseudomonas aeruginosa; details: Pseudomonas aeruginosa, UC12120, Table 3, lower of duplicate values
# Description: as §1, §2, §3
# In Table 3 below, column 1 corresponds to the Example number, column 2 provides the IUPAC name, columns 3-6 provide in vitro biological data generated in the same manner as in Table 2, columns 7 and 8 provide the retention times and mass spectra generated via LCMS, using the method described below. All data is not currently available for all compounds, as indicated by a blank cell in Table 3.
SMILES,IC50 [1] [nM],MIC [2] [µg/mL],MIC [3] [µg/mL],MIC (PA:UC12120) [µg/mL]
"CC(CCn1cc(F)c(-c2ccc(C#N)nc2)cc1=O)(C(=O)NO)S(C)(=O)=O (stereo not drawn) [Example 70, 4-(6-cyano-5′-fluoro-2′-oxo-3,4′-bipyridin-1′(2′H)-yl)-N-hydroxy-2-methyl-2-(methylsulfonyl)butanamide]",33.3,> 64,> 64,64
"CC(CCn1cc(F)c(-c2cccnc2)cc1=O)(C(=O)NO)S(C)(=O)=O (stereo not drawn) [Example 65, 4-(5′-fluoro-2′-oxo-3,4′-bipyridin-1′(2′H)-yl)-N-hydroxy-2-methyl-2-(methylsulfonyl)butanamide]",82.3,> 64,> 64,32
"COC(C)c1ccc(-c2cc(=O)n(CCC(C)(C(=O)NO)S(C)(=O)=O)cc2F)cc1 (stereo not drawn) [Example 88, 4-{5-fluoro-4-[4-(1-methoxyethyl)phenyl]-2-oxopyridin-1(2H)-yl}-N-hydroxy-2-methyl-2-(methylsulfonyl)butanamide]",7.6,> 64,16,4
"CC(CCn1cc(F)c(-c2ccc3c(c2)CNC3=O)cc1=O)(C(=O)NO)S(C)(=O)=O (stereo not drawn) [Example 108, 4-[5-fluoro-2-oxo-4-(1-oxo-2,3-dihydro-1H-isoindol-5-yl)pyridin-1(2H)-yl]-N-hydroxy-2-methyl-2-(methylsulfonyl)butanamide]",7.2,> 64,> 64,> 64
"CC(CCn1cc(F)c(-c2ccc3cn[nH]c3c2)cc1=O)(C(=O)NO)S(C)(=O)=O (stereo not drawn) [Example 51, 4-[5-fluoro-4-(1H-indazol-6-yl)-2-oxopyridin-1(2H)-yl]-N-hydroxy-2-methyl-2-(methylsulfonyl)butanamide]",3.9,> 64,> 64,> 64
"COc1cc(-c2cc(=O)n(CCC(C)(C(=O)NO)S(C)(=O)=O)cc2F)ccc1F (stereo not drawn) [Example 67, 4-[5-fluoro-4-(4-fluoro-3-methoxyphenyl)-2-oxopyridin-1(2H)-yl]-N-hydroxy-2-methyl-2-(methylsulfonyl)butanamide]",4.5,64,16,4
"CC(CCn1cc(F)c(-c2ccc(Cl)cc2F)cc1=O)(C(=O)NO)S(C)(=O)=O (stereo not drawn) [Example 66, 4-[4-(4-chloro-2-fluorophenyl)-5-fluoro-2-oxopyridin-1(2H)-yl]-N-hydroxy-2-methyl-2-(methylsulfonyl)butanamide]",0.8,64,0.5,0.5
"COc1ccc(-c2cc(=O)n(CCC(C)(C(=O)NO)S(C)(=O)=O)cc2F)cc1 (stereo not drawn) [Example 59, 4-[5-fluoro-4-(4-methoxyphenyl)-2-oxopyridin-1(2H)-yl]-N-hydroxy-2-methyl-2-(methylsulfonyl)butanamide]",1,> 64,1,1
"CN(C)Cc1ccc(-c2cc(=O)n(CCC(C)(C(=O)NO)S(C)(=O)=O)cc2F)cc1 (stereo not drawn) [Example 79, 4-[4-{4-[(dimethylamino)methyl]phenyl}-5-fluoro-2-oxopyridin-1(2H)-yl]-N-hydroxy-2-methyl-2-(methylsulfonyl)butanamide]",35.9,> 64,> 64,16
"CC(CCn1cc(F)c(-c2ccncc2F)cc1=O)(C(=O)NO)S(C)(=O)=O (stereo not drawn) [Example 73, 4-(3′,5-difluoro-2-oxo-4,4′-bipyridin-1(2H)-yl)-N-hydroxy-2-methyl-2-(methylsulfonyl)butanamide]",8.3,> 64,> 64,8
"CC(C)Oc1ncccc1-c1cc(=O)n(CCC(C)(C(=O)NO)S(C)(=O)=O)cc1F (stereo not drawn) [Example 104, 4-(5′-fluoro-2-isopropoxy-2′-oxo-3,4′-bipyridin-1′(2′H)-yl)-N-hydroxy-2-methyl-2-(methylsulfonyl)butanamide]",> 100,32,8,32
"CCOc1ccc(-c2cc(=O)n(CCC(C)(C(=O)NO)S(C)(=O)=O)cc2F)cc1 (stereo not drawn) [Example 76, 4-[4-(4-ethoxyphenyl)-5-fluoro-2-oxopyridin-1(2H)-yl]-N-hydroxy-2-methyl-2-(methylsulfonyl)butanamide]",1.1,> 64,0.25,0.5
"CC(CCn1cc(F)c(-c2ccc(F)cc2F)cc1=O)(C(=O)NO)S(C)(=O)=O (stereo not drawn) [Example 97, 4-[4-(2,4-difluorophenyl)-5-fluoro-2-oxopyridin-1(2H)-yl]-N-hydroxy-2-methyl-2-(methylsulfonyl)butanamide]",1.2,> 64,4,1
"COc1cc(C#N)cc(-c2cc(=O)n(CCC(C)(C(=O)NO)S(C)(=O)=O)cc2F)c1 (stereo not drawn) [Example 119, 4-[4-(3-cyano-5-methoxyphenyl)-5-fluoro-2-oxopyridin-1(2H)-yl]-N-hydroxy-2-methyl-2-(methylsulfonyl)butanamide]",50.8,> 64,> 64,64
"CC(CCn1cc(F)c(-c2cc(F)cc(Cl)c2)cc1=O)(C(=O)NO)S(C)(=O)=O (stereo not drawn) [Example 56, 4-[4-(3-chloro-5-fluorophenyl)-5-fluoro-2-oxopyridin-1(2H)-yl]-N-hydroxy-2-methyl-2-(methylsulfonyl)butanamide]",2,> 64,8,2
"CC(CCn1cc(F)c(-c2ccc(O)cc2)cc1=O)(C(=O)NO)S(C)(=O)=O (stereo not drawn) [Example 53, 4-[5-fluoro-4-(4-hydroxyphenyl)-2-oxopyridin-1(2H)-yl]-N-hydroxy-2-methyl-2-(methylsulfonyl)butanamide]",4.2,> 64,> 64,64
"CC(CCn1cc(F)c(-c2cnc3ccccc3c2)cc1=O)(C(=O)NO)S(C)(=O)=O (stereo not drawn) [Example 87, 4-(5-fluoro-2-oxo-4-quinolin-3-ylpyridin-1(2H)-yl)-N-hydroxy-2-methyl-2-(methylsulfonyl)butanamide]",6.1,> 64,16,8
"CC(CCn1cc(F)c(-c2ccc(CCC#N)cc2)cc1=O)(C(=O)NO)S(C)(=O)=O (stereo not drawn) [Example 77, 4-{4-[4-(2-cyanoethyl)phenyl]-5-fluoro-2-oxopyridin-1(2H)-yl}-N-hydroxy-2-methyl-2-(methylsulfonyl)butanamide]",2.6,> 64,32,4
